Measured values taken from ChEMBL document CHEMBL5608211, “Antibody-drug conjugates for targeted cancer therapy: Recent advances in potential payloads” (Eur J Med Chem, 2024).
≈ marks a conversion by molar mass, not a printed value. Values belong to the compound of their own block, whether it stands above or below them. Starred links: 1 amine or outer side, 2 acyl side, 3 side chain; linkers in the order of their positions; H or OH if unused. Positions of bridges follow the written chain, without caps; N, C: chain ends. Non-standard residues stand in square brackets, D forms with d. Residues, ends and D or L forms follow the SMILES beside them. *: point of attachment. X7 = C[C@H]([C@H](N[*:3])C(=O)C[C@@H](Cc1c([*:2])[nH]c2cc(O)ccc12)C(=O)[*:1])[C@@H](O)CO; Dolaproine = CO[C@@H]([C@@H]1CCCN1)[C@@H](C)C(=O)O; Dil = CC[C@H](C)[C@H](NC)[C@@H](CC(=O)O)OC; X3 = CCOP(=O)(OCC)[C@@H](N[*:1])C(=O)[*:2]; Pro(4R-NH2) = N[C@H]1CN[C@H](C(=O)O)C1; NMe2Val = CC(C)[C@@H](C(=O)*)N(C)C; NMeV = CN[C@H](C(=O)O)C(C)C; X5 = c1ccc(COC2CON(*)C2)cc1; X4 = C1=CC2CCC1ON2*; NHOH = ON*

Assays:
[1] = system: K562; experiment: Antiproliferative activity against human K562 cells assessed as inhibition of cell growth incubated for 5 days by WST-1 assay; type: functional, cell-based; conditions: K562, 120 h
[2] = system: DLD-1; experiment: Antiproliferative activity against human DLD-1 cells assessed as inhibition of cell growth incubated for 3 to 4 days; type: functional, cell-based
[3] = molecular target: Tubulin; experiment: Displacement of fluorescent Maytansine probe from tubulin (unknown origin) assessed as dissociation constant by competitive binding based fluorescence anisotropy; type: protein-complex assay, Homo sapiens
[4] = system: A2780; experiment: Cytotoxicity against human A2780 cells assessed as inhibition of cell growth incubated for 72 hrs by MTT assay; type: functional, cell-based; conditions: A2780, 72 h
[5] = system: SK-BR-3; experiment: Cytotoxicity against human SK-BR-3 cells incubated for 4 to 7 days hrs by CellTiter-Glo luminescent assay; type: functional, cell-based
[6] = Inhibition of RNA polymerase II phosphorylation in human HeLa cells by Western blot analysis; type: cell-based
[7] = system: HepG2; experiment: Cytotoxicity against human HepG2 cells assessed as inhibition of cell growth incubated for 72 hrs by fluorometric assay; type: functional, cell-based; conditions: HepG2, 72 h
[8] = system: SK-OV-3; experiment: Cytotoxicity against human SK-OV-3 cells incubated for 96 hrs by PrestoBlue reagent based cell viability assay; type: functional; conditions: SK-OV-3, 96 h
[9] = system: CCRF-CEM; experiment: Cytotoxicity against human CCRF-CEM cells; type: functional, cell-based
[10] = system: HT-29; experiment: Antiproliferative activity against human HT-29 cells incubated for 48 to 96 hrs by MTT assay; type: functional, cell-based
[11] = system: 786-0; experiment: Antiproliferative activity against human 786-0 cells incubated for 48 to 96 hrs by MTT assay; type: functional, cell-based
[12] = system: HT-29; experiment: Antiproliferative activity against human HT-29 cells assessed as inhibition of cell growth incubated for 72 hrs by coulter counter method; type: functional, cell-based; conditions: HT-29, 72 h
[13] = Apparent permeability across basolateral to apical side in human Caco-2 cells incubated for 2 hrs by HPLC-MS analysis; type: ADME, cell-based
[14] = system: SK-BR-3; experiment: Growth inhibition of human SK-BR-3 cells incubated for 72 hrs by CellTiter-Glo luminescent assay; type: functional
[15] = Cytotoxicity against human L540cy cells assessed as reduction in cell growth incubated for 4 days by CellTiter-Glo luminescent assay; type: functional, cell-based; conditions: 96 h

SMILES: CC[C@H](C)[C@H](NC(=O)[C@H]1CCCCN1C)C(=O)N(COC(=O)CC(C)C)[C@H](C[C@@H](OC(C)=O)c1nc(C(=O)N[C@H](Cc2ccccc2)C[C@H](C)C(=O)O)cs1)C(C)C
IC50 [1]: 0.02 ng/mL (≈ 0.0242 nM)

IC50 [2]: 13 nM
SMILES: C=C1C[C@@H]2CC[C@@]34C[C@H]5O[C@H]6[C@@H](O3)[C@H]3O[C@H](CC[C@@H]3O[C@H]6[C@H]5O4)CC(=O)C[C@@H]3[C@@H](OC)[C@@H](C[C@H](O)CN)O[C@H]3C[C@H]3O[C@@H](CC[C@@H]1O2)C[C@@H](C)C3=C [ERIBULIN]

SMILES: COc1cc2cc(c1Cl)N(C)C(=O)C[C@H](OC(=O)c1ccccc1)[C@@]1(C)O[C@H]1[C@H](C)[C@@H]1C[C@@](O)(NC(=O)O1)[C@H](OC)/C=C/C=C(\C)C2
Kd [3]: 51 nM
IC50 [4]: 0.11 nM

SMILES: CCCO[C@H](C[C@H](C(C)C)N(C)C(=O)[C@@H](NC(=O)[C@H]1CCCCN1C)C(C)C)c1nc(C(=O)N[C@@H](Cc2ccc(N)cc2)C[C@H](C)C(=O)O)c(CCOCc2ccccc2)s1
IC50 [5]: 0.04 nM

SMILES: CC[C@H](C)[C@@H]1NC(=O)CNC(=O)[C@H]2CC(=O)[C@H]([C@@H](C)[C@@H](O)CO)NC(=O)[C@@H]3C[C@@H](N)CN3C(=O)[C@H](CC(N)=O)NC(=O)[C@H](CSc3[nH]c4cc(O)ccc4c3C2)NC(=O)CNC1=O (GIGCN[Pro(4R-NH2)]; linker N-4-C via X7)
IC50 [6]: 550 nM

SMILES: CC[C@H](C)[C@@H]([C@@H](CC(=O)N1C[C@@H](NC(=O)OC(C)(C)C)C[C@H]1[C@H](OC)[C@@H](C)C(=O)NCCc1c(F)cccc1F)OC)N(C)C(=O)[C@@H](NC(=O)[C@H](C(C)C)N(C)C)C(C)C
IC50 [7]: 0.13 nM

SMILES: CC[C@H](C)[C@@H]([C@@H](CC(=O)N1CCC[C@H]1[C@H](OC)[C@@H](C)C(=O)N[C@@H](Cc1ccccc1)c1nccs1)OC)N(C)C(=O)[C@@H](NC(=O)[C@H](C(C)C)N(C)CC(O)C(O)C(O)C(O)CN=[N+]=[N-])C(C)C (some centres undefined)
IC50 [8]: < 1 nM

SMILES: COc1ccc(C[C@H]2NC(=O)/C=C/C[C@@H]([C@H](C)[C@@H](O)[C@@H](Cl)c3ccccc3)OC(=O)[C@H](CC(C)C)OC(=O)C(C)(C)CNC2=O)cc1Cl
IC50 [9]: 0.027 nM

IC50 [10]: 0.5 nM
IC50 [11]: 0.5 nM
SMILES: CCOP(=O)(OCC)[C@@H](NC(=O)[C@H](C)[C@@H](OC)[C@@H]1CCCN1C(=O)C[C@@H](OC)[C@H]([C@@H](C)CC)N(C)C(=O)[C@@H](NC(=O)[C@@H](NC)C(C)C)C(C)C)C(=O)N1OC2C=CC1CC2 (some centres undefined) (H-[NMeV]V[Dil][Dolaproine][X3]-X4)

SMILES: CC[C@H](C)[C@H](NC(=O)[C@H]1CCCCN1C)C(=O)N(CC1CC1)[C@H](C[C@@H](OC(C)=O)c1nc(C(=O)N[C@@H](Cc2ccccc2)C[C@H](C)C(=O)O)cs1)C(C)C
IC50 [12]: 0.055 nM

SMILES: CC[C@H](C)[C@@H]([C@@H](CC(=O)N1CCC[C@H]1[C@H](OC)[C@@H](C)C(=O)N[C@@H](Cc1ccccc1)C(=O)N1CC(OCc2ccccc2)CO1)OC)N(C)C(=O)[C@@H](NC(=O)[C@@H](NC)C(C)C)C(C)C (some centres undefined) (H-[NMeV]V[Dil][Dolaproine]F-X5)
IC50 [10]: 0.5 nM
IC50 [11]: 0.5 nM

SMILES: CC[C@H](C)[C@@H]([C@@H](CC(=O)N1CCC[C@H]1[C@H](OC)[C@@H](C)C(=O)N[C@@H](Cc1ccccc1)c1nnc(-c2ccccc2)o1)OC)N(C)C(=O)[C@@H](NC(=O)[C@H](C(C)C)N(C)CCCC(=O)O)C(C)C
Papp B→A at 2 h [13]: 2.9 ×10⁻⁶ cm/s

SMILES: COc1ccc(C[C@H]2NC(=O)/C=C/C[C@@H]([C@H](C)[C@H]3O[C@@H]3c3ccc(F)cc3)OC(=O)[C@H](CC(C)C)OC(=O)C(C)(C)CNC2=O)cc1Cl
IC50 [9]: 0.033 nM

SMILES: COc1cc2cc(c1Cl)N(C)C(=O)C[C@H](OC(=O)[C@H](C)N(C)C(C)=O)[C@]1(C)O[C@H]1[C@H](C)[C@@H]1C[C@@](O)(NC(=O)O1)[C@H](OC)/C=C/C=C(\C)C2 [MAYTANSINE]
Kd [3]: 14 nM

GI50 [14]: 0.1 nM
SMILES: CC[C@H](C)[C@@H]([C@@H](CC(=O)N1CCC[C@H]1[C@H](OC)[C@@H](C)C(=O)N[C@@H](CC(C)C)C(=O)NO)OC)N(C)C(=O)[C@@H](NC(=O)[C@H](C(C)C)N(C)C)C(C)C (NMe2Val-V[Dil][Dolaproine]L-{NHOH})

SMILES: O=C(/C=C/c1cccnc1)NCCCCC1CCN(C(=O)c2ccccc2)CC1 [DAPORINAD]
EC50 [15]: 6.7 nM
